Assay results taken from PubChem BioAssay (NCI).
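Protocol summary: plate cells (96-well), add compound at 5 concentrations, incubate 48 h, interpolate endpoints linearly. At the GI50, growth is halved. TGI denotes the concentration required for complete inhibition of growth.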

Experiments:
Test in all cases: NCI-60 cell line screen, 48 h
A498 renal = test system: A498 renal
SNB-75 CNS = test system: SNB-75 CNS
OVCAR-4 ovarian = test system: OVCAR-4 ovarian
OVCAR-3 ovarian = test system: OVCAR-3 ovarian
HOP-92 NSCLC = test system: HOP-92 NSCLC
TK-10 renal = test system: TK-10 renal
SK-MEL-28 melanoma = test system: SK-MEL-28 melanoma
HS 578T breast = test system: HS 578T breast
SK-MEL-5 melanoma = test system: SK-MEL-5 melanoma
OVCAR-5 ovarian = test system: OVCAR-5 ovarian
CAKI-1 renal = test system: CAKI-1 renal
MALME-3M melanoma = test system: MALME-3M melanoma
KM12 colon = test system: KM12 colon
SF-268 CNS = test system: SF-268 CNS
EKVX NSCLC = test system: EKVX NSCLC
SF-539 CNS = test system: SF-539 CNS
RXF 393 renal = test system: RXF 393 renal
PC-3 prostate = test system: PC-3 prostate
HOP-62 NSCLC = test system: HOP-62 NSCLC
786-0 renal = test system: 786-0 renal
BT-549 breast = test system: BT-549 breast
ACHN renal = test system: ACHN renal
SK-OV-3 ovarian = test system: SK-OV-3 ovarian
UACC-62 melanoma = test system: UACC-62 melanoma
NCI-H23 lung = test system: NCI-H23 lung
MDA-MB-435 = test system: MDA-MB-435
UO-31 renal = test system: UO-31 renal
DU-145 prostate = test system: DU-145 prostate

Q: With `CC[C@]12C=CCN3CC[C@@]4(c5cc(NC(=O)COc6cc(O)c7c(=O)cc(-c8ccccc8)oc7c6)c(OC)cc5N(C)[C@H]4[C@@](O)(C(=O)OC)[C@@H]1OC(C)=O)[C@@H]32` as the compound, how does the GI50 (A498 renal) read?
A: The GI50 was 1.48 µM.

Q: What about the TGI (A498 renal) of the same compound?
A: Its TGI is 3.1 µM.

Q: And the GI50 (SNB-75 CNS)?
A: The GI50 was 1.34 µM.

Q: And the TGI (SNB-75 CNS)?
A: Its TGI is 3.97 µM.

Q: What about the GI50 (OVCAR-4 ovarian) of the same compound?
A: The GI50 was 1.88 µM.

Q: And the TGI (OVCAR-4 ovarian)?
A: The TGI was 3.42 µM.

Q: What about the GI50 (OVCAR-3 ovarian) of the same compound?
A: The GI50 was 2.81 µM.

Q: And the TGI (OVCAR-3 ovarian)?
A: Its TGI is 7.17 µM.

Q: And the GI50 (HOP-92 NSCLC)?
A: The GI50 was 1.36 µM.

Q: And the TGI (HOP-92 NSCLC)?
A: Its TGI is 2.98 µM.

Q: And the GI50 (TK-10 renal)?
A: Its GI50 is 2.15 µM.

Q: What about the TGI (TK-10 renal) of the same compound?
A: Its TGI is 4.84 µM.

Q: And the GI50 (SK-MEL-28 melanoma)?
A: The GI50 was 1.75 µM.

Q: And the TGI (SK-MEL-28 melanoma)?
A: Its TGI is 3.2 µM.

Q: What about the GI50 (HS 578T breast) of the same compound?
A: The GI50 was 1.99 µM.

Q: And the TGI (HS 578T breast)?
A: Its TGI is 4.79 µM.

Q: And the GI50 (SK-MEL-5 melanoma)?
A: The GI50 was 1.81 µM.

Q: What about the TGI (SK-MEL-5 melanoma) of the same compound?
A: Its TGI is 3.34 µM.

Q: What about the GI50 (OVCAR-5 ovarian) of the same compound?
A: Its GI50 is 1.72 µM.

Q: And the TGI (OVCAR-5 ovarian)?
A: The TGI was 3.2 µM.

Q: And the GI50 (CAKI-1 renal)?
A: Its GI50 is 1.81 µM.

Q: What about the TGI (CAKI-1 renal) of the same compound?
A: The TGI was 4.29 µM.

Q: What about the GI50 (MALME-3M melanoma) of the same compound?
A: Its GI50 is 1.58 µM.

Q: What about the TGI (MALME-3M melanoma) of the same compound?
A: Its TGI is 2.97 µM.

Q: And the GI50 (KM12 colon)?
A: Its GI50 is 2.07 µM.

Q: And the TGI (KM12 colon)?
A: The TGI was 5.14 µM.

Q: And the GI50 (SF-268 CNS)?
A: The GI50 was 1.98 µM.

Q: What about the TGI (SF-268 CNS) of the same compound?
A: Its TGI is 4.51 µM.

Q: And the GI50 (EKVX NSCLC)?
A: The GI50 was 2 µM.

Q: And the TGI (EKVX NSCLC)?
A: The TGI was 4.6 µM.

Q: What about the GI50 (SF-539 CNS) of the same compound?
A: The GI50 was 1.67 µM.

Q: And the TGI (SF-539 CNS)?
A: Its TGI is 3.2 µM.

Q: And the GI50 (RXF 393 renal)?
A: The GI50 was 1.74 µM.

Q: And the TGI (RXF 393 renal)?
A: Its TGI is 3.2 µM.

Q: What about the GI50 (PC-3 prostate) of the same compound?
A: The GI50 was 1.31 µM.

Q: What about the TGI (PC-3 prostate) of the same compound?
A: The TGI was 2.78 µM.

Q: And the GI50 (HOP-62 NSCLC)?
A: Its GI50 is 1.88 µM.

Q: What about the TGI (HOP-62 NSCLC) of the same compound?
A: The TGI was 3.94 µM.

Q: And the GI50 (786-0 renal)?
A: The GI50 was 1.79 µM.

Q: What about the TGI (786-0 renal) of the same compound?
A: The TGI was 3.53 µM.

Q: And the GI50 (BT-549 breast)?
A: The GI50 was 1.64 µM.

Q: What about the TGI (BT-549 breast) of the same compound?
A: The TGI was 3.18 µM.

Q: And the GI50 (ACHN renal)?
A: Its GI50 is 1.67 µM.

Q: What about the TGI (ACHN renal) of the same compound?
A: The TGI was 3.2 µM.

Q: What about the GI50 (SK-OV-3 ovarian) of the same compound?
A: The GI50 was 2.15 µM.

Q: What about the TGI (SK-OV-3 ovarian) of the same compound?
A: The TGI was 4.79 µM.

Q: What about the GI50 (UACC-62 melanoma) of the same compound?
A: Its GI50 is 1.85 µM.

Q: And the TGI (UACC-62 melanoma)?
A: The TGI was 3.69 µM.

Q: What about the GI50 (NCI-H23 lung) of the same compound?
A: The GI50 was 1.85 µM.

Q: And the TGI (NCI-H23 lung)?
A: The TGI was 3.45 µM.

Q: What about the GI50 (MDA-MB-435) of the same compound?
A: The GI50 was 1.56 µM.

Q: And the TGI (MDA-MB-435)?
A: Its TGI is 3.02 µM.

Q: What about the GI50 (UO-31 renal) of the same compound?
A: Its GI50 is 1.68 µM.

Q: What about the TGI (UO-31 renal) of the same compound?
A: Its TGI is 3.08 µM.

Q: And the GI50 (DU-145 prostate)?
A: The GI50 was 2.4 µM.

Q: What about the TGI (DU-145 prostate) of the same compound?
A: The TGI was 5.57 µM.
